From publication PMC9144492, “New Screening Protocol for Effective Green Solvents Selection of Benzamide, Salicylamide and Ethenzamide” (Molecules, 2022) come the findings set out here.

Each structure is given as a SMILES string.

Data set [1] can be described thus: solid residues analysis after shake-flask (DSC, FTIR-ATR). The format is physicochemical. The conditions noted are these: sediments after shake-flask in water and organic solvents, FTIR-ATR and literature. The text has this:
The equilibrium in the solid-liquid saturated systems is governed not only by the properties of solvents but also by the solid state including polymorphic or pseudopolymorphic transformations as well as solvates formation. […] For this reason, the sediments collected after the shake-flask experiments for water and studied organic solvents were examined using differential scanning calorimetry (DSC) and Fourier transform infrared spectroscopy–attenuated total reflectance (FTIR-ATR) techniques. The detailed characteristics of solid residues were provided in supplementary materials (see Figures S5–S10). In the case of solvate formation or polymorphic transformation, the absorption band shifts on the IR spectra are often related to new hydrogen bonding patterns. In the case of DSC thermograms, new phases can be detected by observing additional signals due to the heat transfer associated with polymorphic transition or pseudo-polymorph transformations. […] This conclusion is in good accord with already reported observation. According to Ouyang et al. (2019) benzamide solid form is not altered in contact with such solvents as water, methanol, ethanol, 1-propanol, isopropanol, 1-butanol, isobutanol, methyl acetate, ethyl acetate, butyl acetate, acetonitrile and acetone. In the case of salicylamide, the only polymorphic transformation observed so far was with the use of high pressure. […]
The solid residues obtained after “shake-flask” procedure were dried on air and used for IR spectrophotometric and DSC measurements. Infrared spectra were recorded using PerkinElmer (Waltham, MA, USA) spectrophotometer equipped with a diamond attenuated total reflection (ATR) device. DSC thermograms were recorded using DSC 6000 Perkin Elmer (Waltham, MA, USA) calorimeter (heating rate: 5 K/min, nitrogen flow: 20 mL/min) calibrated using indium and zinc reference standards provided by the manufacturer.

Data set [2] is described as follows: shake-flask solubility in aqueous binary mixtures of DMSO, DMF and 4FM. The format is physicochemical. Particulars: aqueous 4FM mixture, 4FM mole fraction 0.6; room temperature (Figure 4). How it is done: In this study, the “shake-flask” procedure used in the previous studies was applied and it consists of the following steps. First, the mixtures (suspensions) containing saturated solution and undissolved solids were prepared in glass screw test tubes. Then the mixtures were incubated and agitated for 24 h at controlled temperature (298.15, 303.15, 308.15, or 313.15 K) and 60 rpm using Orbital Shaker ES-20/60 (Biosan, Riga, Latvia). At the next step, the temperature was still controlled, however, the agitation was turned off and suspensions were let to settle down for an hour. Then, the supernatant was filtrated using 0.22 μm PTFE syringe membrane filter. Nextly, 0.1 mL of the filtrate was diluted with 2 mL of methanol. The samples prepared in this way were protected against crystallization, as the concentration was low. 0.5 mL of the filtrate was used for density measurements. All equipment including automatic pipette tips, membrane filters, and syringes were preheated at the measurement temperature in order to avoid the solute precipitation. All “shake-flask” experiments were carried out in triplicate. The concentration in the samples was determined spectrophotometrically using the calibration curve method. […] All UV spectra were recorded using an A360 UV-VIS spectrophotometer (AOE Instruments, Shanghai, China).

The nature of data set [3]: COSMO-RS solubility computation. Particulars: acetic acid.

Regarding `NC(=O)c1ccccc1` [benzamide], the “phase change of the solid in saturated solutions (polymorph / solvate)” value (“phase change … (polymorph / solvate)” for short) in data set [1] is reported as “do not show a tendency to undergo phase changes”.

Turning to `CCOc1ccccc1C(N)=O` [ethenzamide], the “phase change … (polymorph / solvate)” value in data set [1] is given as “do not show a tendency to undergo phase changes”.

With `NC(=O)c1ccccc1O` [salicylamide], the “phase change … (polymorph / solvate)” value in data set [1] is listed as “do not show a tendency to undergo phase changes”. For the same compound, the “molar fraction solubility (xS)” value in data set [2] came to 0.379 molar fraction. The “mole fraction error of COSMO-RS computed solubility versus experiment” value in data set [3] was −60%.
